Conditions: Liquid, Transpiration method

C=CCc1ccc(OC)cc1 [1-allyl-4-methoxybenzene]
Conditions | vapor or sublimation pressure [kPa]
279.1 K | 0.00378
284.1 K | 0.00583
288.9 K | 0.00912
293.8 K | 0.01395
298.8 K | 0.02153
303.7 K | 0.03168
308.8 K | 0.04509
313.7 K | 0.06571
318.2 K | 0.09199
323.2 K | 0.1278

C=CCc1ccc(O)c(OC)c1 [2-hydroxy-5-allylanisole]
Conditions | vapor or sublimation pressure [kPa]
281.1 K | 0.0003
283.7 K | 0.00039
289 K | 0.00066
293.9 K | 0.00111
298.9 K | 0.00179
303.7 K | 0.00287
308.7 K | 0.00447
313.7 K | 0.00709
318.9 K | 0.01038
323.6 K | 0.01507
328.6 K | 0.02241
333.6 K | 0.03329
338.5 K | 0.04891
343.5 K | 0.06869

C/C=C/c1ccc(O)c(OC)c1 [2-methoxy-4-(1E)-1-propen-1-yl-phenol]
Conditions | vapor or sublimation pressure [kPa]
313.2 K | 0.00241
315.2 K | 0.00289
316.2 K | 0.00313
318.2 K | 0.00371
320.3 K | 0.00449
323.2 K | 0.00561
325.2 K | 0.00657
328.1 K | 0.00838
330.2 K | 0.00975
333.2 K | 0.01216
336.3 K | 0.01528
338.2 K | 0.01783
340.2 K | 0.02046
343.2 K | 0.02507
345.1 K | 0.02835
348.2 K | 0.03558
350.1 K | 0.04019
353.1 K | 0.05109
356.1 K | 0.06297
358.1 K | 0.07097

C/C=C/c1ccc(OC)cc1 [(E)-1-(4-methoxyphenyl)propene]
Conditions | vapor or sublimation pressure [kPa]
296.5 K | 0.00567
300.4 K | 0.00774
304.4 K | 0.0112
308.4 K | 0.01507
312.3 K | 0.02056
313.2 K | 0.02178
316.4 K | 0.02753
318.5 K | 0.03262
321.4 K | 0.04178
323.4 K | 0.04533
326.4 K | 0.05539
328.4 K | 0.06574
331.5 K | 0.08089
333.4 K | 0.09361

Source: the NIST ThermoML archive (doi:10.1016/j.fluid.2019.03.004)
